The text below walks through data of PubChem BioAssay (NCI).

Test systems include OVCAR-3 ovarian; OVCAR-4 ovarian; HT29 colon; DU-145 prostate; SF-539 CNS; SW-620 colon; NCI/ADR-RES ovarian; MDA-MB-435; RPMI-8226 leukemia; LOX IMVI melanoma.
Holding throughout (experiment): DTP human tumour cell line panel, 48 h

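Exposure lasted 48 hours, with cells grown in 96-well plates and compounds tested at five concentrations. Here, GI50 denotes the concentration required for 50% inhibition of growth. TGI: concentration producing complete growth inhibition.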 Bounds are passed on as bounds.

By GI50 is commonly meant the concentration giving 50% growth inhibition. Usually TGI stands for the concentration at which net growth stops. Low values mean more potent growth arrest, high ones less potent growth arrest. In the case of `COC(=O)C1=CN(CC2=CC(=O)C(C)=CC2=O)C=C(C(=O)OC)C1c1cccc(OC)c1OC`, the GI50 with OVCAR-3 ovarian is 8.19 µM; in the assay on OVCAR-4 ovarian it was 12 µM; with HT29 colon, 41.1 µM; with DU-145 prostate it was 17.4 µM; in the assay on SF-539 CNS it was 17.1 µM; in the assay on SW-620 colon it was 19.4 µM. Moreover, the GI50 in the assay with NCI/ADR-RES ovarian was 18.3 µM; in the assay on MDA-MB-435, 15.8 µM; with RPMI-8226 leukemia, 3.09 µM; in the assay with LOX IMVI melanoma, 20 µM. Further, the TGI in the assay with OVCAR-3 ovarian was 24 µM; in the assay on OVCAR-4 ovarian, over 60.5 µM; with HT29 colon, over 100 µM; in the assay on DU-145 prostate, 33.1 µM; in the assay on SF-539 CNS, 56.2 µM; in the assay with SW-620 colon, over 70.6 µM. Further, the total growth inhibition concentration (TGI) came to 38.3 µM in the assay with NCI/ADR-RES ovarian, 39.3 µM in the assay on MDA-MB-435, 10.9 µM in the assay on RPMI-8226 leukemia and 45.2 µM with LOX IMVI melanoma.
With `O=C(Oc1ccccc1)c1cc(O)c(O)c(O)c1`, the GI50 was 4.34 µM in the assay on OVCAR-3 ovarian; 14 µM in the assay on OVCAR-4 ovarian; 30 µM with HT29 colon; 15.7 µM with DU-145 prostate; 5.65 µM in the assay with SF-539 CNS; 14.3 µM in the assay with SW-620 colon. The GI50 was 11.4 µM with NCI/ADR-RES ovarian, 13.1 µM in the assay on MDA-MB-435, 11.4 µM with RPMI-8226 leukemia and 8.97 µM with LOX IMVI melanoma. In addition, the TGI in the assay on OVCAR-3 ovarian was 47.3 µM; with OVCAR-4 ovarian, over 100 µM; in the assay on HT29 colon, over 100 µM; in the assay on DU-145 prostate it was over 100 µM; with SF-539 CNS, 36.3 µM; in the assay with SW-620 colon it was over 100 µM. Also, the concentration for total growth inhibition (TGI) with NCI/ADR-RES ovarian is 56.7 µM; with MDA-MB-435, over 100 µM; in the assay on RPMI-8226 leukemia, over 100 µM; in the assay on LOX IMVI melanoma, over 100 µM.
With `COc1cc2c(cc1OCCCCCOc1cc(-c3ccc(F)cc3)nc(C)n1)N=C[C@@H]1CCCN1C2=O`, the GI50 in the assay on OVCAR-3 ovarian is over 38.2 µM; in the assay with OVCAR-4 ovarian it was over 40.6 µM; with HT29 colon, over 45.1 µM; with DU-145 prostate, over 39.8 µM; with SF-539 CNS it was over 100 µM; in the assay on SW-620 colon, over 32.1 µM. The GI50 in the assay with NCI/ADR-RES ovarian is over 100 µM; in the assay with MDA-MB-435, over 45.3 µM; in the assay with LOX IMVI melanoma, 11.1 µM. For the same compound, the concentration for total growth inhibition (TGI) with OVCAR-3 ovarian was over 58.3 µM; in the assay on OVCAR-4 ovarian, over 79.7 µM; in the assay with HT29 colon, over 100 µM; in the assay with DU-145 prostate it was over 87.4 µM; in the assay with SF-539 CNS, over 100 µM; in the assay on SW-620 colon, over 87.1 µM. In addition, the TGI in the assay with NCI/ADR-RES ovarian is over 100 µM; in the assay with MDA-MB-435, over 67.5 µM; in the assay with RPMI-8226 leukemia, over 24 µM; in the assay with LOX IMVI melanoma, 31 µM.
As to `CCCCCCCCCCCCCCCCC(C(=O)O)C(O)(CC(=O)O)C(=O)O` (stereo not drawn), the TGI in the assay on OVCAR-3 ovarian is 35.8 µM; in the assay with HT29 colon, 45.4 µM; in the assay with DU-145 prostate, over 100 µM; in the assay on SF-539 CNS, 89.3 µM; in the assay on SW-620 colon, 46.6 µM; with NCI/ADR-RES ovarian, over 100 µM. Besides, the results for the TGI with MDA-MB-435, in the assay on RPMI-8226 leukemia and in the assay with LOX IMVI melanoma were over 100 µM, 74.8 µM and 66.3 µM, respectively.
On to `O=c1cc/c(=N\Nc2ccccc2)c(=O)/c1=N/Nc1ccccc1`, for which the GI50 in the assay with OVCAR-3 ovarian, in the assay with OVCAR-4 ovarian, with HT29 colon, in the assay on DU-145 prostate, in the assay with SF-539 CNS and in the assay on SW-620 colon was over 50 µM in each case. Besides, the GI50 in the assay on NCI/ADR-RES ovarian, with MDA-MB-435 and in the assay on LOX IMVI melanoma was over 50 µM throughout. The total growth inhibition concentration (TGI) with OVCAR-3 ovarian, in the assay with OVCAR-4 ovarian, in the assay with HT29 colon, in the assay on DU-145 prostate, in the assay on SF-539 CNS and with SW-620 colon was over 50 µM each time. For the same compound, the total growth inhibition concentration (TGI) in the assay with NCI/ADR-RES ovarian, in the assay on MDA-MB-435 and in the assay on LOX IMVI melanoma was over 50 µM in each case.
Regarding `Clc1nc(Cl)c2ncn(C/C=C\Cn3cnc4c(Cl)nc(Cl)nc43)c2n1`, the GI50 with OVCAR-3 ovarian is 1.37 µM; with OVCAR-4 ovarian, 1.79 µM; in the assay on HT29 colon, 1.69 µM; in the assay with DU-145 prostate it was 1.54 µM; in the assay on SF-539 CNS it was 2.49 µM; in the assay with SW-620 colon, 1.41 µM. The GI50 in the assay on NCI/ADR-RES ovarian was 2.46 µM; with MDA-MB-435, 1.88 µM; in the assay on LOX IMVI melanoma it was 1.8 µM. In addition, the TGI turned out to be 2.69 µM with OVCAR-3 ovarian; 3.26 µM in the assay with OVCAR-4 ovarian; 3.35 µM in the assay on HT29 colon; 2.89 µM with DU-145 prostate; 5.97 µM with SF-539 CNS; 2.99 µM in the assay on SW-620 colon. In addition, the TGI in the assay on NCI/ADR-RES ovarian was 8.01 µM; in the assay on MDA-MB-435, 3.77 µM; with LOX IMVI melanoma, 3.48 µM.
With `COc1cc2c(/C=C3/C(=O)Nc4ccccc43)c(Cl)n(Cc3ccccc3)c2cc1C`, the GI50 in the assay on OVCAR-3 ovarian was over 100 µM; in the assay with DU-145 prostate it was over 100 µM; with SF-539 CNS, over 100 µM; in the assay with SW-620 colon, over 100 µM; with NCI/ADR-RES ovarian, over 100 µM; in the assay with MDA-MB-435, 64.4 µM. The GI50 with RPMI-8226 leukemia was 21.1 µM; with LOX IMVI melanoma, over 100 µM. Moreover, the TGI with OVCAR-3 ovarian, with DU-145 prostate, with SF-539 CNS, in the assay with SW-620 colon, in the assay on NCI/ADR-RES ovarian and in the assay on MDA-MB-435 was over 100 µM in each case. Besides, the TGI in the assay on RPMI-8226 leukemia and with LOX IMVI melanoma was over 100 µM throughout.
Regarding `COc1cc(C)cc2c1OC(c1ccccc1)CC2=O` (stereo not drawn), the GI50 in the assay with OVCAR-3 ovarian, in the assay with OVCAR-4 ovarian, in the assay on HT29 colon, in the assay on DU-145 prostate, with SF-539 CNS and in the assay on SW-620 colon was over 100 µM in each case. Moreover, the GI50 in the assay with NCI/ADR-RES ovarian, in the assay with MDA-MB-435 and in the assay with LOX IMVI melanoma was over 100 µM in each case. Further, the TGI in the assay with OVCAR-3 ovarian, in the assay with OVCAR-4 ovarian, with HT29 colon, in the assay on DU-145 prostate, with SF-539 CNS and in the assay on SW-620 colon was over 100 µM in each case. Also, the concentration for total growth inhibition (TGI) with NCI/ADR-RES ovarian, in the assay with MDA-MB-435 and in the assay with LOX IMVI melanoma was over 100 µM in each case.
